Measurements reported in ChEMBL document CHEMBL1146949, “Isoquinoline derivatives as potential acetylcholinesterase inhibitors” (Bioorg Med Chem Lett, 2006).

Experiments:
[1] = biological target: T1, Acetylcholinesterase (Homo sapiens, UniProt P22303); assay: Inhibition of AChE activity
[2] = biological target: T1, Acetylcholinesterase; assay: Inhibition of AChE at 0.3 mM
[3] = biological target: T1, Acetylcholinesterase; assay: Inhibition of AChE at 0.03 mM

T1 sequence (P22303 whole entry): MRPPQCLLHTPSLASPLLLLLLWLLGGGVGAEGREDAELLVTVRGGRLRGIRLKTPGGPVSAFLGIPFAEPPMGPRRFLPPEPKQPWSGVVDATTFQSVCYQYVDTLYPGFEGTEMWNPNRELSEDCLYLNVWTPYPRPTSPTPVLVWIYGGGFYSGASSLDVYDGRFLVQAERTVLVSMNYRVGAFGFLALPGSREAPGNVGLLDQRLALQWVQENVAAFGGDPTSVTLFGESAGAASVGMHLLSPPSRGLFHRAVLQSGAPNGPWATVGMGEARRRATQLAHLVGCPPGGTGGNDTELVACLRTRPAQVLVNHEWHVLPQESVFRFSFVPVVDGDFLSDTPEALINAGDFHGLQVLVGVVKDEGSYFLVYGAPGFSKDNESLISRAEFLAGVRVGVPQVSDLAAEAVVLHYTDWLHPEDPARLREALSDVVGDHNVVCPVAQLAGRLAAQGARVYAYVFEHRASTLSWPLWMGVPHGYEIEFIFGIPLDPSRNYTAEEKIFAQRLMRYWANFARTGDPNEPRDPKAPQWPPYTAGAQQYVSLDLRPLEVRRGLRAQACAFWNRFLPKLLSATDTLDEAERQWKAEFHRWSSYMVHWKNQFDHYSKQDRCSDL

Question: For `COc1ccc(C(O)c2nccc3cc(OC)c(OC)cc23)cc1OC` (stereo unspecified), which IC50 [1] is on record?
Answer: The IC50 was 10.7 µM.

Question: What does the source list for `COc1cc2ccnc(C(O)c3ccccc3OC)c2cc1OC` (stereo unspecified)?
Answer: IC50 [1]: 6.94 µM; inhibition ([1]; concentration not given here): 0%

Question: Which IC50 [1] does the source give for `COc1ccc(Cc2nccc3cc(OC)c(OC)cc23)cc1OC` [PAPAVERINE] here?
Answer: The IC50 was 24.3 µM.

Question: For `COC(=O)N1CCc2c(OC)c(OC)c(OC)c3c2C1Cc1cc(OC)c(OC)cc1-3` (stereo unspecified), which inhibition [2] is on record?
Answer: Its inhibition is 15.9%.

Question: What about the inhibition [3] of the same compound?
Answer: The inhibition was 7.3%.
